Reference: the NIST ThermoML archive (doi:10.1021/je100747y)

How the values were obtained:
[1] = refractive index (Na D-line) (dimensionless); details: 298.15 K; 101.33 kPa; Liquid; Standard Abbe refractometry
[2] = 298.15 K; 101.33 kPa; Liquid
[3] = refractive index (Na D-line) (dimensionless); xn = mol fraction of the nth substance listed; details: 298.15 K, 101 kPa, Liquid, Standard Abbe refractometry
[4] = xn = mol fraction of the nth substance listed; details: 298.15 K, 101 kPa, Liquid, Vibrating tube method

CC(=O)CC(C)=O [2,4-pentanedione]
Details | mass density [kg/m3] | refractive index
[1] | – | 1.4509
[2] | 971 | –

CC(=O)CC(C)=O [2,4-pentanedione] + ClC(Cl)Cl
Details | mass density, [4] [kg/m3] | refractive index, [3]
x2 = 0.0498 | 988.5 | 1.4498
x2 = 0.0996 | 1009.2 | 1.4497
x2 = 0.2007 | 1052.6 | 1.4496
x2 = 0.3002 | 1097.2 | 1.4494
x2 = 0.4002 | 1144.3 | 1.4492
x2 = 0.4999 | 1193.6 | 1.4487
x2 = 0.5997 | 1245.4 | 1.4482
x2 = 0.7007 | 1300.4 | 1.4475
x2 = 0.7997 | 1356.8 | 1.4465
x2 = 0.899 | 1415.6 | 1.445
x2 = 0.9494 | 1446.3 | 1.4442

ClC(Cl)Cl [trichloromethane]
Details | mass density [kg/m3] | refractive index
[1] | – | 1.443
[2] | 1478 | –
